The values that follow come from US4478840A, “Appetite suppressing compositions and methods” (E. I. Du Pont de Nemours and Company, priority 1983, dated 1984).

Test [1] in a line: Analgesic/narcotic antagonist property. The settings on record: stated in words, no test described.
A further test concerns Female CF1 mice. The experiment in a line: Anorexia test, oral dose route (milk consumption of fasted mice). Format: in vivo, mouse. The settings on record: for ED50: Mus musculus, oral, female CF1 mice fasted 17 to 21 hours, dose at which treated mice would consume 50% as much milk as controls, milk 1/2 h after dose, 30 min count; for food intake in mice: summary statement on Table I. The procedure:
Female CF1 mice, which had been fasted for 17 to 21 hours, were dosed orally with the test compound (ten or more mice per dose). One-half hour later, each mouse was transferred to an individual compartment (13.3 cm×12.7 cm×12.7 cm) with a 0.64 cm×0.64 cm wire mesh floor. Inside each compartment was a brass bar (13 cm×1.2 cm×1.2 cm) in the top of which were ten shallow, round spot depressions (0.8 cm diameter). Each depression contained 0.05 ml of 50% sweetened condensed milk.
Thirty minutes after the mice were transferred into the compartments, the number of milk spots each mouse had consumed was counted. Fractions of spots consumed also were estimated and counted. The percent anorexigenic effect was estimated by comparison of the mean number of spots of milk consumed per mouse at a given dose with the mean number of spots consumed per vehicle-treated control mouse. Dose-response curves were plotted and from these the ED50%, the dose at which treated mice would be expected to consume 50% as much milk as control mice, was calculated.

A further test concerns Male CF1 mice. The experiment in a line: Anorexia test, subcutaneous dose route (milk consumption of fasted mice). Format: in vivo. The conditions noted are these: Mus musculus, sc, male CF1 mice fasted 17 to 21 hours, dose at which treated mice would consume 50% as much milk as controls, milk 7 1/2 to 15 min after dose, 10 min count. The protocol:
Male CF1 mice, which had been fasted for 17 to 21 hours, were dosed subcutaneously with the test compound (20 mice per dose) and placed into an individual compartment (13.3 cm×12.7 cm×12.7 cm) with a 0.64 cm×0.64 cm wire mesh floor. 71/2 to 15 minutes later a black Lucite bar (13 cm×1.2 cm×1.2 cm) in the top of which were ten shallow round spot depressions (0.8 cm diameter) was inserted into each compartment. Each depression contained 0.05 ml of 50% sweetened condensed milk.
Ten minutes after the milk was presented to the mice, the number of milk spots each mouse had consumed was counted. Fractions of spots consumed also were estimated and counted. Dose-response curves were plotted and from these the ED50%, the dose at which treated mice would be expected to consume 50% as much milk as control mice, was calculated.

Another test relates to rats. The conditions noted are these: sweetened Enfamil baby formula; subcutaneous; cited from earlier work.
In another test the test system is mammals. The settings on record: oral; cited from earlier work.
The test system of a further test is food-deprived rats. The settings on record: cited from earlier work.
The subject of a further test is food-deprived mice. The settings on record: cited from earlier work.

As to `Oc1ccc2c3c1O[C@H]1CCC[C@@]4(O)[C@@H](C2)N(CC2CCC2)CC[C@]314` [17-cyclobutylmethyl-4,5α-epoxymorphinan-3,14-diol], in test [1], the analgesic/narcotic antagonist property entry was “mixed analgesic/narcotic antagonist”.
Consider `Oc1ccc2c3c1O[C@H]1CCC[C@@]4(O)[C@@H](C2)N(CC2CC2)CC[C@]314` [17-cyclopropylmethyl-4,5α-epoxymorphinan-3,14-diol], for which the analgesic/narcotic antagonist property entry in test [1] is listed as “narcotic antagonist”.
For `Cl.Oc1ccc2c3c1O[C@H]1CCC[C@@]4(O)[C@@H](C2)N(CC2CC2)CC[C@]314` [Example 1, 17-Cyclopropylmethyl-4,5α-epoxymorphinan-3,14-diol, Hydrochloride], in the test with Female CF1 mice, the ED50 (usually the dose at which the effect has come halfway, by size or by number of responders) was determined as 2.5 mg/kg and the “food intake in mice” value is “decreased food intake”.
Turning to `Cl.Oc1ccc2c3c1O[C@H]1CCC[C@@]4(O)[C@@H](C2)N(CC2CCC2)CC[C@]314` [Example 2, 17-Cyclobutylmethyl-4,5α-epoxymorphinan-3,14-diol, Hydrochloride], the figures for the ED50 in the test on Male CF1 mice and in the test with Female CF1 mice were 3.2 mg/kg and 84 mg/kg, respectively. Moreover, in the test on Female CF1 mice, the “food intake in mice” value was “decreased food intake”.
In the case of `CCNC(C)Cc1cccc(C(F)(F)F)c1` (centres unmarked) [Fenfluramine], the ED50 in the test with Male CF1 mice stood at 7.6 mg/kg; in the test with Female CF1 mice, 13.5 mg/kg.
Consider `O=C1CC[C@@]2(O)[C@H]3Cc4ccc(O)c5c4[C@@]2(CCN3CC2CC2)[C@H]1O5` [Naltrexone, (-)-17-cyclopropylmethyl-4,5α-epoxy-3,14-dihydroxymorphinan-6-one], for which the ED50 with Male CF1 mice worked out at 0.4 mg/kg; with Female CF1 mice, 3 mg/kg. Further, the “fluid intake of rats” value in the test on rats was “reduced”. Besides, in the test with mammals, the appetite suppression result is “appetite suppression”.
As to `C=CCN1CC[C@]23c4c5ccc(O)c4O[C@H]2[C@@H](O)C=C[C@H]3[C@H]1C5` [nalorphine, N-allylnormorphine], in the test with rats, the “fluid intake of rats” value is reported as “reduced”.
Take `C=CCN1CC[C@]23c4c5ccc(O)c4O[C@H]2C(=O)CC[C@@]3(O)[C@H]1C5` [naloxone, N-allyl-14-hydroxy-7,8-dihydronormorphinone]: the “eating by food-deprived rats” value in the test on food-deprived rats is “suppresses eating”. The “fluid intake of rats” value with rats is on record as “reduced”. The “eating by food-deprived mice” value in the test on food-deprived mice was “not by food-deprived mice”.
